Measured values: patent US10613105B2, “Competitive immunoassay test system for detecting a pyrogen” (FRAUNHOFER-GESELLSCHAFT ZUR FORDERUNG DER ANGEWANDTEN …, priority 2014, dated 2020)

Target: T1, TLR4 (Homo sapiens, UniProt O00206)
T1 construct: purchased Hölzel Diagnostik GmbH 10146-H08B-100; host or cells: baculovirus insect cells
Test: Surface plasmon resonance spectroscopy (Biacore T200), TLR4 immobilized on NTA sensor chip via his-tag
Format: binding
Conditions: for Ka in 1/M / Kd: HBS-P+ with 50 μM EDTA, 20° C., 10 μL/min, 5 concentrations
Excerpt: The affinity of a ligand to its receptor describes the tendency thereof to enter into a bond with the receptor. The greater affinity, the greater the association constant Ka is. The strength of the receptor/ligand interaction can be determined experimentally with the aid of surface plasmon resonance spectroscopy (Biacore T200, GE Healthcare) and quantified by the so-called dissociation constant (Kd). Kd is thereby the reciprocal value of Ka, a thermodynamic value, which indicates which portion of the ligand is bound on average to the receptor protein and has the dimension of a concentration. The Biacore chip system is based on a glass slide with a gold film in a flow cell. TLR4 was immobilized on the NTA sensor chip via its his-tag in accordance with the manufacturer's protocol and the to-be-tested ligands, control compounds and LPS were passed over it dissolved in HBS-P+ with 50 μM EDTA at 20° C. with a flow rate of 10 μL/min in respectively 5 concentrations. The bond with TLR4 is measured as a change in the refractive index in the flow cell as compared to a reference cell as a response difference in RU. 1 RU corresponds thereby to 1 pg of bound ligand. After ligand injection, buffer is used for rinsing in order to ideally recreate the initial state, complete disassociation of the ligand.

T1 sequence (O00206 24-631 limits assumed): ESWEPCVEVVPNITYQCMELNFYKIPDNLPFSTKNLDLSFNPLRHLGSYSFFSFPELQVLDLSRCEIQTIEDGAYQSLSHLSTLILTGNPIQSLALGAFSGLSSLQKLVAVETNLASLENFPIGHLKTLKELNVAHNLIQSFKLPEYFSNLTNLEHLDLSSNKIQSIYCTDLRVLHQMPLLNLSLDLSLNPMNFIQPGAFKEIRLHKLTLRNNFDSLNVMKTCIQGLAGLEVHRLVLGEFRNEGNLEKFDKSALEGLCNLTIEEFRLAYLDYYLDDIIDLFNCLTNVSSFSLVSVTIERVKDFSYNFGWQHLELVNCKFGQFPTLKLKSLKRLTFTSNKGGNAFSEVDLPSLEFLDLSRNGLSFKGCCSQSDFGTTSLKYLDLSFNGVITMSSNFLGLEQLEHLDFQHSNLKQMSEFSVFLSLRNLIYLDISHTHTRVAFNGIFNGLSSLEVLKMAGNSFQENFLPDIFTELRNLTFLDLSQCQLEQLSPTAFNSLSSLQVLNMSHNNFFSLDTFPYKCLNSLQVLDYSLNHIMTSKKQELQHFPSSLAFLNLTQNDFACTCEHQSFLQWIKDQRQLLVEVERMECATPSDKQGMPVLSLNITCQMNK

Ka in 1/M | Kd | reduction of binding affinity for TLR4 by the TAMRA labeling (T5635346 with vs without TAMRA labeling) | Compound
4,135,649 1/M | 242 nM | 40 fold | Cc1ccc(C(=O)N2CCOCC2)c(O)c1 [T5635346, (2-hydroxy-4-methylphenyl)-morpholin-4-ylmethanone]
9,803,922 1/M | 102 nM | – | CC(C)CN1CCOC(CNC(=O)Nc2ccc3c(c2)OCO3)C1 (centres unmarked) [T5874283, 1-(1,3-benzodioxol-5-yl)-3-[[4-(2-methylpropyl)morpholin-2-yl]methyl]urea]
